# Columns and labels:
# [1] = tested on: a variety of crops and weed species; test: Pre- and post-emergence herbicide tests, overall assessment of TABLES III-VI; format: in vivo; settings: from data of TABLES III-VI
# Protocol: (§1) All crop and weed species were planted individually in 3" plastic pots containing potting soil. Four seeds each of corn, cotton, and snapbeans were seeded to a depth equal to the diameter of the seed. All other species were surface seeded and sprinkled with screened soil in an amount sufficient to cover the seed. Immediately after planting, all pots were watered by sub-irrigation in greenhouse trays. Pots for the pre-emergence phase were seeded one day before treatment.
# (§2) Planting dates for the post-emergence phase were varied so that all seedlings would reach the desired stage of development simultaneously. The proper stage of seedling development for treatment in the post-emergence phase is as follows:
# (§3) Compounds were tested at rates of application equivalent to 8 lbs. of actual compound per acre in a spray volume of 38 gallons per acre. Spray hood constants required to deliver the above volume are as follows:
# (§4) Two weeks after treatment, pre- and post-emergence injury or control was visually rated, and the results were as shown in the following tables. Pre-emergence data are provided in TABLE III and post-emergence data are provided in TABLE IV, for compounds having the formula illustrated in TABLE I. Correspondingly, pre-emergence and post-emergence data, respectively, are set forth in TABLES V AND VI, for compounds having the formula illustrated in TABLE II.
# Typical of such compounds are: 1, 2, 5, 26, 36, and 37.
# [2] = tested on: Amaranth pigweed (PW); test: Post-emergence herbicide test, amaranth pigweed; format: in vivo, Amaranthus retroflexus; settings: two weeks
# Protocol: (§5) Amaranth pigweed (PW)--Amaranthus retroflexus
# as §1, §2
# (§6) Pigweed and turnips: 1 or 2 true leaves above visible cotyledons.
# as §3
# (§7) Formulations for spray applications were prepared in 50 ml volumes with the following three components:
# (§8) Formulations for the 4 lbs/acre rate were prepared by adjusting the amount of active ingredient accordingly.
# (§9) Spray applications were made in a hood containing a removable belt and fixed spray nozzle. For passage through the spray hood, one pot of each specie (pre-emergence phase) was placed on the rear half of the flat. Treatments were removed to the greenhouse after spraying. Watering during the observation period was done only by sub-irrigation.
# as §4
# [3] = tested on: Yellow foxtail grass (YF); test: Post-emergence herbicide test, yellow foxtail grass; format: in vivo, Setarin glauca; settings: two weeks
# Protocol: (§10) Yellow foxtail grass (YF)--Setarin glauca
# as §1, §2, §3, §7, §8, §9, §4
# [4] = tested on: Cotton (CT); test: Post-emergence herbicide test, cotton; format: in vivo, Gossypium hirsutum var. DPL smooth leaf; settings: two weeks
# Protocol: (§11) Cotton (CT)--Gossypium hirsutum var. DPL smooth leaf
# as §1, §2
# cotton: first true leaf 1" in length; expanded cotyledons.
# (§12) Spray hood constants required to deliver the above volume are as follows:
# as §7, §8, §9, §4
# [5] = tested on: Yellow foxtail grass (YF); test: Pre-emergence herbicide test, yellow foxtail grass; format: in vivo, Setarin glauca; settings: two weeks
# Protocol: as §10, §1, §12
# (§13) Formulations for spray applications were prepared in 50 ml volumes with the following three components: […]
# as §9, §4
# [6] = tested on: Corn (CN); test: Post-emergence herbicide test, corn; format: in vivo, Zea mays; settings: two weeks
# Protocol: as §1, §2, §3, §7, §8, §9, §4
# [7] = tested on: Cotton (CT); test: Pre-emergence herbicide test, cotton; format: in vivo, Gossypium hirsutum var. DPL smooth leaf; settings: two weeks
# Protocol: as §11, §1, §3, §7, §8, §9, §4
# [8] = tested on: Crabgrass (CG); test: Pre-emergence herbicide test, crabgrass; format: in vivo, Digitaria sanguinalis; settings: two weeks
# Protocol: (§14) Crabgrass (CG)--Digitaria sanguinalis
# as §1, §12, §7, §8, §9, §4
# [9] = tested on: Amaranth pigweed (PW); test: Pre-emergence herbicide test, amaranth pigweed; format: in vivo, Amaranthus retroflexus; settings: two weeks
# Protocol: as §5, §1, §3, §7, §8, §9, §4
# [10] = tested on: Crabgrass (CG); test: Post-emergence herbicide test, crabgrass; format: in vivo, Digitaria sanguinalis; settings: two weeks
# Protocol: as §14, §1, §2, §12, §13, §9, §4
# [11] = tested on: Johnson grass (JG); test: Pre-emergence herbicide test, Johnson grass; format: in vivo, Sorgum helepense; settings: two weeks
# Protocol: (§15) Johnson grass (JG)--Sorgum helepense
# as §1, §12, §13, §9, §4
# [12] = tested on: Bean (BN); test: Post-emergence herbicide test, bean; format: in vivo, Phaseolus vulgaris var. Black Valentine; settings: two weeks
# Protocol: (§16) Bean (BN)--Phaseolus vulgaris var. Black Valentine
# as §1, §2
# Beans: primary leaves expanded, growing point at primary leaf nodes.
# as §12, §7, §8, §9, §4
# [13] = tested on: Barnyard grass (BG); test: Pre-emergence herbicide test, barnyard grass; format: in vivo, Echinochloa crus-galli; settings: two weeks
# Protocol: (§17) Barnyard grass (BG)--Echinochloa crus-galli
# as §1, §3, §7, §8, §9, §4
# [14] = tested on: Turnip (TP); test: Post-emergence herbicide test, turnip; format: in vivo, Brassica sp.; settings: two weeks
# Protocol: (§18) Turnip (TP)--Brassica sp.
# as §1, §2, §6, §12, §13, §9, §4
# [15] = tested on: Bean (BN); test: Pre-emergence herbicide test, bean; format: in vivo, Phaseolus vulgaris var. Black Valentine; settings: two weeks
# Protocol: as §16, §1, §3, §7, §8, §9, §4
# [16] = tested on: Turnip (TP); test: Pre-emergence herbicide test, turnip; format: in vivo, Brassica sp.; settings: two weeks
# Protocol: as §18, §1, §12, §13, §9, §4
# [17] = tested on: Barnyard grass (BG); test: Post-emergence herbicide test, barnyard grass; format: in vivo, Echinochloa crus-galli; settings: two weeks
# Protocol: as §17, §1, §2, §12, §13, §9, §4
# [18] = tested on: Johnson grass (JG); test: Post-emergence herbicide test, Johnson grass; format: in vivo, Sorgum helepense; settings: two weeks
# Protocol: as §15, §1, §2, §12, §13, §9, §4
# [19] = tested on: Corn (CN); test: Pre-emergence herbicide test, corn; format: in vivo, Zea mays; settings: two weeks
# Protocol: as §1, §3, §7, §8, §9, §4
structure (smiles),measurement,setting,value
O=C(Nc1ccc(Cl)c(Cl)c1)Nc1nnc(C(F)(F)F)s1 [Example 16],herbicidal effectiveness and selectivity (in words),[1],more selective
"CSc1nnc(N(C)C(=O)N(C)C)s1 [Example 5, 1,1,3-trimethyl-3-[5-methylthio-2-(1,3,4-thiadiazolyl)]urea]",herbicidal effectiveness and selectivity (in words),[1],extremely effective
CNC(=O)N(C)c1nnc(C(C)(C)C)s1 [Example 42],"POST-EMERGENCE ACTIVITY, % CONTROL",[2]; 2 lb/acre,100%
same,"POST-EMERGENCE ACTIVITY, % CONTROL",[2]; 4 lb/acre,100%
same,"POST-EMERGENCE ACTIVITY, % CONTROL",[2]; 8 lb/acre,100%
same,"POST-EMERGENCE ACTIVITY, % CONTROL",[3]; 2 lb/acre,90%
same,"POST-EMERGENCE ACTIVITY, % CONTROL",[3]; 4 lb/acre,90%
same,"POST-EMERGENCE ACTIVITY, % CONTROL",[3]; 8 lb/acre,100%
same,"POST-EMERGENCE ACTIVITY, % CONTROL",[4]; 2 lb/acre,100%
same,"POST-EMERGENCE ACTIVITY, % CONTROL",[4]; 4 lb/acre,100%
same,"POST-EMERGENCE ACTIVITY, % CONTROL",[4]; 8 lb/acre,100%
same,"PRE-EMERGENCE ACTIVITY, % CONTROL",[5]; 2 lb/acre,90%
same,"PRE-EMERGENCE ACTIVITY, % CONTROL",[5]; 4 lb/acre,80%
same,"PRE-EMERGENCE ACTIVITY, % CONTROL",[5]; 8 lb/acre,90%
same,"POST-EMERGENCE ACTIVITY, % CONTROL",[6]; 2 lb/acre,70%
same,"POST-EMERGENCE ACTIVITY, % CONTROL",[6]; 4 lb/acre,70%
same,"POST-EMERGENCE ACTIVITY, % CONTROL",[6]; 8 lb/acre,100%
same,"PRE-EMERGENCE ACTIVITY, % CONTROL",[7]; 2 lb/acre,30%
same,"PRE-EMERGENCE ACTIVITY, % CONTROL",[7]; 4 lb/acre,70%
same,"PRE-EMERGENCE ACTIVITY, % CONTROL",[7]; 8 lb/acre,90%
same,"PRE-EMERGENCE ACTIVITY, % CONTROL",[8]; 2 lb/acre,90%
same,"PRE-EMERGENCE ACTIVITY, % CONTROL",[8]; 4 lb/acre,90%
same,"PRE-EMERGENCE ACTIVITY, % CONTROL",[8]; 8 lb/acre,90%
same,"PRE-EMERGENCE ACTIVITY, % CONTROL",[9]; 2 lb/acre,100%
same,"PRE-EMERGENCE ACTIVITY, % CONTROL",[9]; 4 lb/acre,100%
same,"PRE-EMERGENCE ACTIVITY, % CONTROL",[9]; 8 lb/acre,100%
same,"POST-EMERGENCE ACTIVITY, % CONTROL",[10]; 2 lb/acre,40%
same,"POST-EMERGENCE ACTIVITY, % CONTROL",[10]; 4 lb/acre,70%
same,"POST-EMERGENCE ACTIVITY, % CONTROL",[10]; 8 lb/acre,100%
same,"PRE-EMERGENCE ACTIVITY, % CONTROL",[11]; 2 lb/acre,70%
same,"PRE-EMERGENCE ACTIVITY, % CONTROL",[11]; 4 lb/acre,90%
same,"PRE-EMERGENCE ACTIVITY, % CONTROL",[11]; 8 lb/acre,100%
same,"POST-EMERGENCE ACTIVITY, % CONTROL",[12]; 2 lb/acre,80%
same,"POST-EMERGENCE ACTIVITY, % CONTROL",[12]; 4 lb/acre,100%
same,"POST-EMERGENCE ACTIVITY, % CONTROL",[12]; 8 lb/acre,100%
same,"PRE-EMERGENCE ACTIVITY, % CONTROL",[13]; 2 lb/acre,80%
same,"PRE-EMERGENCE ACTIVITY, % CONTROL",[13]; 4 lb/acre,90%
same,"PRE-EMERGENCE ACTIVITY, % CONTROL",[13]; 8 lb/acre,90%
same,"POST-EMERGENCE ACTIVITY, % CONTROL",[14]; 2 lb/acre,100%
same,"POST-EMERGENCE ACTIVITY, % CONTROL",[14]; 4 lb/acre,100%
same,"POST-EMERGENCE ACTIVITY, % CONTROL",[14]; 8 lb/acre,100%
same,"PRE-EMERGENCE ACTIVITY, % CONTROL",[15]; 2 lb/acre,40%
same,"PRE-EMERGENCE ACTIVITY, % CONTROL",[15]; 4 lb/acre,90%
same,"PRE-EMERGENCE ACTIVITY, % CONTROL",[15]; 8 lb/acre,100%
same,"PRE-EMERGENCE ACTIVITY, % CONTROL",[16]; 2 lb/acre,100%
same,"PRE-EMERGENCE ACTIVITY, % CONTROL",[16]; 4 lb/acre,90%
same,"PRE-EMERGENCE ACTIVITY, % CONTROL",[16]; 8 lb/acre,100%
same,"POST-EMERGENCE ACTIVITY, % CONTROL",[17]; 2 lb/acre,90%
same,"POST-EMERGENCE ACTIVITY, % CONTROL",[17]; 4 lb/acre,90%
same,"POST-EMERGENCE ACTIVITY, % CONTROL",[17]; 8 lb/acre,100%
same,"POST-EMERGENCE ACTIVITY, % CONTROL",[18]; 2 lb/acre,70%
same,"POST-EMERGENCE ACTIVITY, % CONTROL",[18]; 4 lb/acre,90%
same,"POST-EMERGENCE ACTIVITY, % CONTROL",[18]; 8 lb/acre,100%
same,"PRE-EMERGENCE ACTIVITY, % CONTROL",[19]; 2 lb/acre,0%
same,"PRE-EMERGENCE ACTIVITY, % CONTROL",[19]; 4 lb/acre,60%
same,"PRE-EMERGENCE ACTIVITY, % CONTROL",[19]; 8 lb/acre,90%
CNC(=O)Nc1nnc(SC)s1 [Example 26],herbicidal effectiveness and selectivity (in words),[1],extremely effective

# Reference: patent US4599424A, “5-substituted thiadiazole ureas and their use as herbicides” (priority 1979, dated 1986)
